Data reported in PubChem BioAssay AID504822 (The Scripps Research Institute Molecular Screening Center, 2011).
Activity calls are given as the source filed them.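 How the source made its calls: active means EC50 for procaspase-7 activation at or below 10 µM; inactive means EC50 above 10 µM.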

Target: Caspase-7 (Homo sapiens) (UniProt P55210)
Experiment: activators of human procaspase-7 D3A mutant, late-stage follow-up, biochemical, absorbance, PC-7 D3A triple mutant, powder samples (AID 504822)
Conditions: recombinant procaspase-7 D3A, Ac-DEVD-pNA absorbance

Sequence of Caspase-7 (Homo sapiens) (P55210 whole entry D23A/D198A/D206A): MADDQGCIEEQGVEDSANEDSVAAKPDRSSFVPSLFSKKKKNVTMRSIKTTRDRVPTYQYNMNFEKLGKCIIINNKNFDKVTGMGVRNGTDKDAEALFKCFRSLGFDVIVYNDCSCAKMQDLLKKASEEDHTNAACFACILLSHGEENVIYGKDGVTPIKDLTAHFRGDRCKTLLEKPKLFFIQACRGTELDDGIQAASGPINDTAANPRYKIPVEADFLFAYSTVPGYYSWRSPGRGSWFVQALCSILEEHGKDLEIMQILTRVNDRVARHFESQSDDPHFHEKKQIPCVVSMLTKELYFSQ

Row | EC50 | SMILES
1 | > 85.3 µM (inactive) | O=C(Nc1ccc(Cc2ccncc2)cc1)C1CCC(N2C(=O)C3C4C=CC(C5CC45)C3C2=O)CC1 (stereo not given)
2 | > 85.3 µM (inactive) | COc1ccccc1N1C(=O)C2C(C(=O)c3ccccc3)=NN(c3ccccc3)C2C1=O (stereo not given)
3 | 4.49 µM | Cc1[nH]nc2c1C(c1c[nH]c3ccccc13)C(C#N)=C(N)O2 (stereo not given)
4 | > 85.3 µM (inactive) | COC(=O)C1=NN(c2ccc(Cl)cc2)C2C(=O)N(c3ccccc3OC)C(=O)C12 (stereo not given)
5 | > 85.3 µM (inactive) | O=C(C1=NN(c2ccccc2)C2C(=O)N(c3ccccc3)C(=O)C12)c1ccccc1 (stereo not given)
